This experiment deals with CD2F1 mice, L1210 leukemia ip, survival T/C. Put plainly: NCI In Vivo Anticancer Drug Screen. Data for tumor model L1210 Leukemia (intraperitoneal) in CD2F1 (CDF1) mice. To be noted: higher = longer survival. Put shortly:
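Ratio T/C, where T is the treated-group value and C the vehicle-dosed control value, from mice implanted with a transplantable tumor.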

The mark [1] stands for this setting: endpoint: mean survival time, dose: 400.0 mg/kg/injection, schedule: Q04DX003 (ip), vehicle: saline with Tween-80.
Where [2] appears, read: endpoint: mean survival time, dose: 50.0 mg/kg/injection, schedule: Q01DX009 (ip), vehicle: saline with Tween-80.
Where [3] appears, read: endpoint: mean survival time, dose: 100.0 mg/kg/injection, schedule: Q01DX009 (ip), vehicle: saline with Tween-80.
Where [4] appears, read: endpoint: mean survival time, dose: 200.0 mg/kg/injection, schedule: Q01DX009 (ip), vehicle: saline with Tween-80.
Where [5] appears, read: endpoint: mean survival time, dose: 100.0 mg/kg/injection, schedule: Q01DX001 (ip), vehicle: saline with Tween-80.
Setting [6] is: endpoint: mean survival time, dose: 200.0 mg/kg/injection, schedule: Q01DX001 (ip), vehicle: saline with Tween-80.
Where [7] appears, read: endpoint: mean survival time, dose: 400.0 mg/kg/injection, schedule: Q01DX001 (ip), vehicle: saline with Tween-80.
Setting [8] is: endpoint: mean survival time, dose: 100.0 mg/kg/injection, schedule: Q04DX003 (ip), vehicle: saline with Tween-80.
Where [9] appears, read: endpoint: mean survival time, dose: 25.0 mg/kg/injection, schedule: Q04DX002 (ip), vehicle: saline with Tween-80.
Where [10] appears, read: endpoint: mean survival time, dose: 50.0 mg/kg/injection, schedule: Q04DX002 (ip), vehicle: saline with Tween-80.
[11] abbreviates: endpoint: mean survival time, dose: 100.0 mg/kg/injection, schedule: Q04DX002 (ip), vehicle: saline with Tween-80.
[12] abbreviates: endpoint: mean survival time, dose: 400.0 mg/kg/injection, schedule: Q01DX009 (ip), vehicle: saline with Tween-80.
[13] abbreviates: endpoint: mean survival time, dose: 200.0 mg/kg/injection, schedule: Q04DX003 (ip), vehicle: saline with Tween-80.

Structures are written as SMILES. Values joined by “and” are separate entries in the source; they are usually repeats but may differ in a detail not shown here. Identical values can stand only once. Inconclusive results and toxic doses are left out.

As for `OCC1OC(n2c(C(F)(F)F)nc3cc4ccccc4cc32)C(O)C1O` (stereo not given), the T/C was 103 % of control (endpoint: median survival time, dose: 22.5 mg/kg/injection, schedule: Q01DX005 (ip), vehicle: saline with Tween-80); 103 % of control (endpoint: median survival time, dose: 45.0 mg/kg/injection, schedule: Q01DX005 (ip), vehicle: saline with Tween-80); 93 % of control (endpoint: median survival time, dose: 90.0 mg/kg/injection, schedule: Q01DX005 (ip), vehicle: saline with Tween-80); 98 % of control (endpoint: median survival time, dose: 180.0 mg/kg/injection, schedule: Q01DX005 (ip), vehicle: saline with Tween-80).
Regarding `CC(c1ccccc1C(=O)O)c1cc(F)cc2ccccc12` (stereo not given), the T/C reads like this: (endpoint: median survival time, dose: 25.0 mg/kg/injection, schedule: Q04DX003 (ip), vehicle: saline with Tween-80) 111 % of control; (endpoint: median survival time, dose: 50.0 mg/kg/injection, schedule: Q04DX003 (ip), vehicle: saline with Tween-80) 111 % of control; (endpoint: median survival time, dose: 100.0 mg/kg/injection, schedule: Q04DX003 (ip), vehicle: saline with Tween-80) 88 % of control; (endpoint: median survival time, dose: 200.0 mg/kg/injection, schedule: Q04DX003 (ip), vehicle: saline with Tween-80) 88 % of control.
Regarding `COCCN=C(N)C(N)=NCCOC`, the T/C is, setting by setting: (endpoint: mean survival time, dose: 100.0 mg/kg/injection, schedule: Q01DX009 (ip), vehicle: saline) 105 % of control; (endpoint: mean survival time, dose: 200.0 mg/kg/injection, schedule: Q01DX009 (ip), vehicle: saline) 103 % of control; (endpoint: mean survival time, dose: 400.0 mg/kg/injection, schedule: Q01DX009 (ip), vehicle: saline) 102 % of control.
Consider `COc1cc2cc3c4cc(OC)c(OC)cc4cc[n+]3c(C)c2cc1OC` (tested in a mixture with another compound), for which the T/C is 95 % of control (endpoint: mean survival time, dose: 50.0 mg/kg/injection, schedule: Q01DX009 (ip), vehicle: saline); 91 % of control (endpoint: mean survival time, dose: 50.0 mg/kg/injection, schedule: Q04DX003 (ip), vehicle: saline); 122 % of control (endpoint: mean survival time, dose: 200.0 mg/kg/injection, schedule: Q04DX003 (ip), vehicle: saline); 88 % of control under setting [1].
Take `COc1ccc(CNCCO)cc1`: the T/C runs as follows: under setting [2], 96 % of control; under setting [3], 102 % of control; under setting [4], 98 % of control.
As to `COc1cc(C(=O)N/N=C/c2ccc(N(C)C)cc2)cc(OC)c1OC`, the T/C reads like this: under setting [3], 119 % of control; under setting [4], 98 % of control.
With `CC#CN(CC)CC`, the T/C is, setting by setting: (endpoint: mean survival time, dose: 75.0 mg/kg/injection, schedule: Q01DX001 (ip), vehicle: saline) 105 % of control; (endpoint: mean survival time, dose: 150.0 mg/kg/injection, schedule: Q01DX001 (ip), vehicle: saline) 106 % of control.
As for `CCOc1c(NCCO)c2cc(Cl)ccc2oc1=O`, the T/C is 95 % of control under setting [5], 87 % of control under setting [6] and 97 % of control under setting [7].
With `Cc1ccc(C)c(C(O)C(=O)O)c1` (stereo not given), the T/C (endpoint: mean survival time, dose: 100.0 mg/kg/injection, schedule: Q04DX002 (ip), vehicle: Klucel (hydroxypropylcellulose) (HPC)) was 94 % of control; the T/C (endpoint: mean survival time, dose: 200.0 mg/kg/injection, schedule: Q04DX002 (ip), vehicle: Klucel (hydroxypropylcellulose) (HPC)) was 105 % of control; the T/C (endpoint: mean survival time, dose: 400.0 mg/kg/injection, schedule: Q04DX002 (ip), vehicle: Klucel (hydroxypropylcellulose) (HPC)) is 98 % of control.
Regarding `CCCCNC(C)(C)C(SSSC(c1ccc(Cl)cc1)C(C)(C)NCCCC)c1ccc(Cl)cc1` (stereo not given), the T/C reads like this: (endpoint: mean survival time, dose: 12.0 mg/kg/injection, schedule: Q04DX003 (ip), vehicle: other) 97 % of control; (endpoint: mean survival time, dose: 25.0 mg/kg/injection, schedule: Q04DX003 (ip), vehicle: other) 105 % of control; (endpoint: mean survival time, dose: 50.0 mg/kg/injection, schedule: Q04DX003 (ip), vehicle: other) 96 % of control.
Turning to `C=CCCCCCCCCC(=O)Nc1cc2c3c(c1)CCCN3CCC2`, the T/C runs as follows: under setting [2], 97 % of control; under setting [3], 101 % of control; under setting [8], 93 % of control.
`Nc1nc(N)nc(Cl)n1`: the T/C was 90 % of control under setting [9], 101 % of control under setting [10] and 90 % of control under setting [11].
On to `COc1ccccc1N=Nc1c(O)n(-c2ccccc2OC)c(=S)n(-c2ccc(I)cc2)c1=O`, for which the T/C was 96 % of control under setting [5], 93 % of control under setting [6] and 95 % of control under setting [7].
With `O=Cc1ccc(C=O)cc1`, the T/C is 104 % of control under setting [3], 98 % of control under setting [4] and 96 % of control under setting [12].
As for `CC(c1ccc2ccccc2c1)C1CCCCC1C(=O)O` (stereo not given), the T/C reads like this: under setting [3], 102 % of control; under setting [4], 100 % of control; under setting [12], 97 % of control.
Turning to `C[N+]1(C)N=C([O-])N(c2cccc3ccccc23)C1=O`, the T/C reads like this: under setting [5], 98 % of control; under setting [3], 103 % of control; under setting [6], 101 % of control; under setting [4], 108 % of control; under setting [7], 98 % of control.
Take `CC(Cl)S(=O)(=O)c1ccccc1` (stereo not given): the T/C under setting [11] is 104 % of control; the T/C (endpoint: mean survival time, dose: 200.0 mg/kg/injection, schedule: Q04DX002 (ip), vehicle: saline with Tween-80) is 96 % of control; the T/C (endpoint: mean survival time, dose: 400.0 mg/kg/injection, schedule: Q04DX002 (ip), vehicle: saline with Tween-80) is 96 % of control.
Regarding `CC([NH-])C([NH-])O.O=S(=O)(O)O.[Pt+2]` (stereo not given), the T/C (endpoint: mean survival time, dose: 12.5 mg/kg/injection, schedule: Q04DX003 (ip), vehicle: saline) is 166 % of control and the T/C (endpoint: mean survival time, dose: 25.0 mg/kg/injection, schedule: Q04DX003 (ip), vehicle: saline) is 103 % of control.
Turning to `COc1ccc2c(c1)CNC1c3cc(OC)c(O)cc3CC21` (stereo not given), where the note is “endpoint: mean survival time, dose: 66.0 mg/kg/injection, schedule: Q04DX003 (ip), vehicle: saline with Tween-80”, the T/C is 107 % of control.
As to `COc1cc(Cl)ccc1NC(=O)OCCOc1c(C(C)C)cccc1C(C)C`, the T/C under setting [2] was 101 % of control, the T/C under setting [3] is 101 % of control and the T/C under setting [4] was 89 % of control.
Consider `COc1cc(Cc2nc(Cl)cc(Cl)n2)cc(OC)c1OC`, for which the T/C is, setting by setting: under setting [3], 105 % of control; under setting [8], 95 % of control; under setting [4], 97 % of control; under setting [13], 93 % of control; under setting [12], 103 % of control; under setting [1], 97 % of control.
As to `O=C1C2C3CC4C2C(Br)C2C1C3C42` (stereo not given), the T/C was 104 % of control under setting [9] and 100 % of control under setting [10].
Regarding `CCCCNC1=CC(=O)c2ccccc2C1=O`, the T/C by setting is: under setting [5], 103 % of control; under setting [6], 95 % of control; under setting [7], 92 % of control.
Turning to `CC1(C)C2CCC1(C(=O)O)C(=O)C2` (stereo not given), the T/C under setting [8] was 92 % of control, the T/C under setting [13] was 92 % of control and the T/C under setting [1] is 87 % of control.
As to `CCCCn1c(=O)cc(C(=O)O)c2ccccc21`, the T/C is 93 % of control under setting [3], 97 % of control under setting [4] and 89 % of control under setting [12].
Regarding `CC(C)C(Br)C(=O)NC(Cc1ccccc1)C(=O)O` (stereo not given), the T/C is 101 % of control under setting [8], 110 % of control under setting [13] and 122 % of control under setting [1].
In the case of `O=C(O)C1OC(Sc2ncnc3nc[nH]c23)C(O)C(O)C1O` (stereo not given), the T/C is 98 % of control (endpoint: median survival time, dose: 25.0 mg/kg/injection, schedule: Q01DX005 (ip), vehicle: saline); 108 % of control (endpoint: median survival time, dose: 50.0 mg/kg/injection, schedule: Q01DX005 (ip), vehicle: saline); 109 % of control (endpoint: median survival time, dose: 100.0 mg/kg/injection, schedule: Q01DX005 (ip), vehicle: saline); 120 % of control and 112 % of control (endpoint: median survival time, dose: 200.0 mg/kg/injection, schedule: Q01DX005 (ip), vehicle: saline); 115 % of control (endpoint: median survival time, dose: 400.0 mg/kg/injection, schedule: Q01DX005 (ip), vehicle: saline).
`CC(=O)OCC1OC(N2C(=O)/C(=C/c3ccc4ccccc4c3)SC2=S)C(OC(C)=O)C(OC(C)=O)C1OC(C)=O` (stereo not given): the T/C reads like this: (endpoint: mean survival time, dose: 3.13 mg/kg/injection, schedule: Q01DX005 (ip), vehicle: distilled water + Tween-80) 88 % of control; (endpoint: mean survival time, dose: 6.25 mg/kg/injection, schedule: Q01DX005 (ip), vehicle: distilled water + Tween-80) 94 % of control; (endpoint: mean survival time, dose: 12.5 mg/kg/injection, schedule: Q01DX005 (ip), vehicle: distilled water + Tween-80) 96 % of control; (endpoint: mean survival time, dose: 25.0 mg/kg/injection, schedule: Q01DX005 (ip), vehicle: distilled water + Tween-80) 98 % of control; (endpoint: mean survival time, dose: 50.0 mg/kg/injection, schedule: Q01DX005 (ip), vehicle: distilled water + Tween-80) 100 % of control.

The record behind these values is PubChem BioAssay AID256 (DTP/NCI, 2004).
